The values below come from patent US9221834B2 (Merck Sharp & Dohme Corp., priority 2010, dated 2015).

In series [1] the target is T1, endogenous CETP from serum (Homo sapiens, UniProt P11597).
T1 construct: For the transfer assay using endogenous CETP from serum (95% RTA); from tissue; host or cells: human serum
T1 sequence (P11597 18-493): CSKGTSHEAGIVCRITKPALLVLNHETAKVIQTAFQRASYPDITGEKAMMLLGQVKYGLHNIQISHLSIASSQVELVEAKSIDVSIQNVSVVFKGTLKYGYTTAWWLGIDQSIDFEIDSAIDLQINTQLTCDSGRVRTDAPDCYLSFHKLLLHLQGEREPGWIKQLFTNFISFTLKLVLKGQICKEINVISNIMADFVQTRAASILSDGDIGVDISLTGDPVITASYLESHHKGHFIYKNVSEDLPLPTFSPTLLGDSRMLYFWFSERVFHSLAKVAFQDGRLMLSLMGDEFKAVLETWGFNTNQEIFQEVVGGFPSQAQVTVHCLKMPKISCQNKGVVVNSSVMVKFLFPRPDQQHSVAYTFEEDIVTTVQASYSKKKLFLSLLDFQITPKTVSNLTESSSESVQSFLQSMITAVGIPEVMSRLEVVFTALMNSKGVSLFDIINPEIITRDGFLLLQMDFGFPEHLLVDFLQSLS
Kind of series: RTA assay using endogenous CETP from serum (95% RTA). The class given is biochemical. Particulars: RTA assay in 95% human serum, labeled with an asterisk. Here is the method: In Vitro Radioactive Assays of CETP-Catalyzed CE and TG Transfer (RTA Assay)
Reagents and sources are: [3H] cholesteryl oleate (GE #TRK.886), [3H] Triolein (Perkin-Elmer NET-431), Butylated hydroxyl toluene (Aldrich, #D4740-4), DOPC (Sigma, #P6354), Sodium Bromide (Fisher scientific #5255-500), PEG 8000 (Fisher, #BP233-1), and human HDL (Intracel Corp #RP-036).
An in vitro assay for determining IC50's to identify compounds that inhibit CETP transfer activity is performed based on a modification of a published method (Morton and Zilversmit, (1981) A plasma inhibitor of triglyceride and cholesteryl ester transfer activities, J. Biol. Chem. 256(23), 11992-11995). The ability of inhibitors to alter CETP activity is performed using two different assays: one using recombinant CETP and one using an edogenous plasma source of CETP. Both assays measure the transfer of [3H] cholesteryl oleate or [3H]triolein from exogenous LDL to HDL.
Radiolabeled donor particles are generated by first combining 100 μl of 200 μM butylated hydroxyl toluene in CHCl3, 216 μL of 21.57 mM DOPC in EtOH, and either 500 μCi [3H]-triolein (Perkin Elmer #NET-431) or 500 μCi [3H]-cholesteryl oleate (GE #TRK886) in a glass tube. Reagents are mixed, dried under nitrogen, and then resuspended in 2 mL of 50 mM Tris, 27 μM EDTA at pH 7.4. After a brief vortex, the solution is sonicated until clear and mixed with 20 mL of fresh human serum. The mixture is incubated overnight at 37° C. The [3H] labeled LDL substrate is separated at 1.063 g/ml density by sequential ultracentrifugal flotation in NaBr according to the method by (Havel, Eder et al. 1955; Chapman, Goldstein et al. 1981). Once isolated the particles are dialyzed 3× in CETP buffer (50 mM Tris, pH 7.4, 100 mM NaCl, 1 mM EDTA). Human HDL is purchased from Intracel and used as the acceptor particles.
Transfer assays are performed in a 96-well v-bottom polypropylene plate. […] After mixing, plates are counted by liquid scintillation. […]

A further series concerns the target T2, CETP (Homo sapiens, UniProt P11597).
T2 construct: made in house
T2 sequence (P11597 18-493): T1 sequence (P11597 18-493)
The experiment in a line: Scintillation Proximity Assay (SPA) for CETP Activity. The class given is biochemical. As for the experimental part:
Protocol: Scintillation Proximity Assay (SPA) for CETP Activity
First low density lipoprotein (LDL) (Meridian) was biotinylated by incubating LDL with biotin for 1 hour on ice, after which it was dialyzed to remove free biotin. Then compounds at varying concentrations were incubated with 15 nM CETP (reagent production group, In Vitro Pharmacology, MRL Rahway) and 50 ug/ml of the biotinylated LDL in 50 mM HEPES, 150 mM NaCl, pH 7.4, for 1 hour at 37° C. The reaction was started by adding ^3H-cholesterol ester high density lipoprotein (HDL) (American Radiochemicals Corp) at a concentration of ˜0.6 nM. The reaction proceeded for 2 hours at 37° C., after which time it was quenched by the addition of 12% acetic acid. PVT streptavadin-coated scintillation proximity beads, which had been brought to room temperature, were then added at a concentration of 4 mg/ml. The assay was then mixed and counted after one half hour in a Microbeta plate reader.

The target of the next series is T3, recombinant CETP (rCETP) (Homo sapiens, UniProt P11597).
T3 sequence (P11597 18-493): T1 sequence (P11597 18-493)
Kind of series: RTA assay using recombinant CETP (2% RTA). As to conditions: value printed with the example; serum level not stated there; read-out: RTA. The format is biochemical. The method in brief:
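Compounds preincubated 1 h at 37 °C with assay cocktail (CETP buffer: 50 mM Tris pH 7.4, 100 mM NaCl, 1 mM EDTA; human HDL acceptor); transfer started with [3H]cholesteryl oleate- or [3H]triolein-labelled LDL, 60 min at 37 °C. LDL PEG-precipitated; supernatant counted by scintillation, blank-corrected; IC50 from 4-parameter sigmoidal fit of % inhibition vs DMSO control.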

The conditions of series [2]: cited from earlier work.
The conditions of series [3]: torcetrapib and atorvastatin concomitantly compared with atorvastatin alone; cited from earlier work.
Setting [4] is: patients, with baseline statin therapy, compared with just a statin.

Turning to `COC(=O)c1ccc(-c2cc(-c3cnc(N4CCC4)nc3CN3C(=O)O[C@H](c4cc(C(F)(F)F)cc(C(F)(F)F)c4)[C@@H]3C)c(F)cc2F)c(C)c1` [Example 142], the IC50 in series [1] was 145 nM. On the same count and under the same terms, for `Cc1cc(C(=O)O)ccc1-c1cc(-c2cnc(N3CCC3)nc2CN2C(=O)O[C@H](c3cc(C(F)(F)F)cc(C(F)(F)F)c3)[C@@H]2C)c(F)cc1F` [Example 170] the value was 110 nM; for `COc1ccc(CCC(=O)O)cc1-c1cnc(N2CCC2)nc1CN1C(=O)O[C@H](c2cccc(F)c2)[C@@H]1C` [Example 277], 35 nM. With `COc1cc(F)c(C(C)C)cc1-c1ccc(-n2cccn2)nc1CN1C(=O)O[C@H](c2cc(C(F)(F)F)cc(C(F)(F)F)c2)[C@@H]1C` [Example 299, (4S,5R)-5-[3,5-bis(trifluoromethyl)phenyl]-3-({3-[4-fluoro-2-methoxy-5-(propan-2-yl)phenyl]-6-(1H-pyrazol-1-yl)pyridin-2-yl}methyl)-4-methyl-1,3-oxazolidin-2-one], the IC50 on CETP turned out to be 55.8 nM.

`COc1ccc(-c2ccc(C(=O)O)cc2C)cc1-c1cnc(N2CCC2)nc1CN1C(=O)O[C@H](c2cc(Cl)cc(Cl)c2)[C@@H]1C` [Example 302]: at recombinant CETP (rCETP), the IC50 came to 4.43 nM. The same measure, in the same setting: for `COc1cc(F)c(C(C)C)cc1-c1cnc(N2CC(F)C2)nc1CN1C(=O)O[C@H](c2cc(C3CC3)cc(C(F)(F)F)c2)[C@@H]1C` [Example 303, (4S,5R)-5-[3-cyclopropyl-5-(trifluoromethyl)phenyl]-3-({2-(3-fluoroazetidin-1-yl)-5-[4-fluoro-2-methoxy-5-(propan-2-yl)phenyl]pyrimidin-4-yl}methyl)-4-methyl-1,3-oxazolidin-2-one] the value was 98 nM. For the compound `COc1cc(F)c(C(C)C)cc1-c1ccc(C(F)(F)F)cc1CN1C(=O)O[C@H](c2cc(C(F)(F)F)cc(C(F)(F)F)c2)[C@@H]1C` [anacetrapib], in series [2] (patients treated with anacetrapib), the increase in mortality result is given as “unlikely”. In series [2] (setting [4]), the “decrease of LDL-C” value was 40% and the “increase of HDL-C” value is 138%.

`CCOC(=O)N1c2ccc(C(F)(F)F)cc2[C@@H](N(Cc2cc(C(F)(F)F)cc(C(F)(F)F)c2)C(=O)OC)C[C@H]1CC` [torcetrapib, Torcetrapib]: the incidence of mortality entry in series [3] is recorded as “higher incidence of mortality”.
